Data taken from patent US12252701B2, “Chimeric antigen receptor T cell therapy” (KITE PHARMA, INC., priority 2020, dated 2025).
Where two headings read alike, the source gives them in different places.

Columns and labels:
[1] = tested on: phospho-STAT-1, -3 and -5 in CD4, CD8 T cells and monocytes (CAR T product, PBMCs); experiment: Intracellular phospho-STAT-1, -3, -5 by flow cytometry in immune cell subsets of CAR T product and PBMCs; type: cell-based, human
Experimental: Further experiments were performed to look at impacts of JAK inhibitors on STAT phosphorylation in various immune cell subsets.

[2] = tested on: NALM6.GFP.LUC.CD19 target cells; experiment: Serial killing assay of CAR-T, percent cytotoxicity by luciferase detection; conditions: repeat stimulation rounds
[3] = tested on: NALM6.GFP.LUC.CD19 target cells; experiment: Serial killing assay; type: cell-based, human
Experimental: CD19 CAR-T cells were thawed in RPMI media supplemented with HEPES, Penicillin/Streptomycin/L-Glutamine and 10% FBS and rested overnight. The following day, drugs were serially diluted and prepared in 96-well plates. Rested T cells were counted and normalized so that 25,000 or 8,333 T cells were plated with 25,000 NALM6.GFP.LUC.CD19 target cells (1:1 or 1:3 Effector:Target ratio) in the prepared 96-well plates. At 16 hour post-incubation and every 3-4 days, T cell killing of targets was measured via luciferase detection. D-luciferin substrate was added to the co-culture wells at a final concentration of 0.14 mg/mL and plates were incubated at 37° C. in the dark for 10 minutes. Luminescent signal was read immediately after in a VarioSkan™ LUX microplate reader. T cell-mediated cytotoxicity was calculated as follows: % Cytotoxicity=[1−luciferase signal of (sample of interest/target alone control)]*100. Afterwards, co-cultures were stained with LIVE/DEAD and antibodies against CD4, CD8 and KIP-1 and then washed. Cells were then analyzed and quantified via the Attune NxT flow cytometer. T cells were then repeatedly stimulated with fresh 25,000 target cells, and this process was repeated every 3-4 days.

[4] = cited from earlier work
CAR-T cells = experiment: CAR-T cell expansion assay (KIP-1 or CD3/CD28 stimulation)
CD19 CAR T cells = experiment: CAR T cell cytokine production (Luminex) under CD19 K562, KIP-1 or CD2/3/28 stimulation
[5] = E:T ratio 1:3, all doses tested

## Nc1nc2cccc(-c3ccc(CN4CCS(=O)(=O)CC4)cc3)n2n1 [GS-829845]
[1]; CD4 CART cells
  Primary Cell IL-6 pSTAT1 signaling (% inhibition): 18%
  Primary Cell IL-6 pSTAT3 signaling (% inhibition): 6%
  Primary Cell IL-6 pSTAT5 signaling (% inhibition): 29%
[1]; CD8 CART cells
  Primary Cell IL-6 pSTAT1 signaling (% inhibition): 11%
  Primary Cell IL-6 pSTAT3 signaling (% inhibition): 2%
  Primary Cell IL-6 pSTAT5 signaling (% inhibition): 17%
[1]; IL-6 stimulation
  effect on phosphorylated-STAT-1, -STAT-3 and -STAT5 levels: only a fraction of the filgotinib suppression levels
[1]; Monocytes within bulk PBMCs
  Primary cell GM-CSF-pSTAT5, inhibition: 3%
[1]; PBMC CD4 T cells
  Primary Cell IL-6 pSTAT1 signaling (% inhibition): 25%
  Primary Cell IL-6 pSTAT3 signaling (% inhibition): 15%
  Primary Cell IL-6 pSTAT5 signaling (% inhibition): 36%
[1]; PBMC CD8 T cells
  Primary Cell IL-6 pSTAT1 signaling (% inhibition): 10%
  Primary Cell IL-6 pSTAT3 signaling (% inhibition): 11%
  Primary Cell IL-6 pSTAT5 signaling (% inhibition): 24%
[1]; PBMC Monocytes
  Primary Cell IL-6 pSTAT1 signaling (% inhibition): 24%
  Primary Cell IL-6 pSTAT3 signaling (% inhibition): 17%
  Primary Cell IL-6 pSTAT5 signaling (% inhibition): 21%
[1]; T cells within bulk PBMCs
  Primary cell GM-CSF-pSTAT5, inhibition: 16%
[2]; E:T of 1:1, dose titration
  impact on CAR-T serial killing (percent cytotoxicity): enhance serial killing
[2]; E:T of 1:3, dose titration
  impact on CAR-T serial killing (percent cytotoxicity): no impact
[3]; E:T ratio 1:1
  T-cell counts: increased T-cell counts in a dose-dependent manner
  serial killing: enhanced serial killing
[3]; [5]
  T-cell counts: no negative impacts were observed
  serial killing: no negative impacts
[4]; clinical dosing, patient sera, repeat dose studies
  Cmax: 3540 ng/mL
[4]; plasma protein binding, reported
  Protein binding: ~58%
CAR-T cells; CD3/CD28, dose 1000 nM, day 0
  % viability: 75%
CAR-T cells; CD3/CD28, dose 1000 nM, day 4
  % viability: 55.6%
CAR-T cells; CD3/CD28, dose 1000 nM, day 8
  % viability: 76.2%
CAR-T cells; CD3/CD28, dose 1000 nM, day 12
  % viability: 88.9%
CAR-T cells; CD3/CD28, dose 5000 nM, day 0
  % viability: 75%
CAR-T cells; CD3/CD28, dose 5000 nM, day 4
  % viability: 56.5%
CAR-T cells; CD3/CD28, dose 5000 nM, day 8
  % viability: 75.6%
CAR-T cells; CD3/CD28, dose 5000 nM, day 12
  % viability: 88.8%
CAR-T cells; KIP-1, dose 1000 nM, day 0
  % viability: 75%
CAR-T cells; KIP-1, dose 1000 nM, day 4
  % viability: 48.4%
CAR-T cells; KIP-1, dose 1000 nM, day 8
  % viability: 63%
CAR-T cells; KIP-1, dose 1000 nM, day 12
  % viability: 82.5%
CAR-T cells; KIP-1, dose 5000 nM, day 0
  % viability: 75%
CAR-T cells; KIP-1, dose 5000 nM, day 4
  % viability: 60%
CAR-T cells; KIP-1, dose 5000 nM, day 8
  % viability: 87%
CAR-T cells; KIP-1, dose 5000 nM, day 12
  % viability: 81.1%
CAR-T cells; at the doses tested (Table 40)
  effect on T cell expansion: little to no effect
CD19 CAR T cells
  suppression of cytokine production from CAR T cells (breadth and magnitude): weaker in activity compared to filgotinib and other JAK inhibitors
CD19 CAR T cells; CD3/CD28 stimulation, 72 h
  Suppression of cytokine production, IL-6 (IC50): Suppress
  Suppression of cytokine production, MCP-1 (IC50): Suppress
  Suppression of cytokine production, TNFa (IC50): Suppress
CD19 CAR T cells; K562-CD19 stimulation, 72 h
  Suppression of cytokine production, IL-6 (IC50): Suppress
  Suppression of cytokine production, MCP-1 (IC50): Suppress
  Suppression of cytokine production, MIG (IC50): Suppress
  Suppression of cytokine production, TNFa (IC50): Suppress
CD19 CAR T cells; KIP-1 stimulation, 72 h
  Suppression of cytokine production, IL-6 (IC50): Suppress
  Suppression of cytokine production, MCP-1 (IC50): Suppress
  Suppression of cytokine production, TNFa (IC50): Suppress
CD19 CAR T cells; read-out: Suppression of cytokine production, GMCSF (IC50), CD3/CD28 stimulation, 72 h
  IC50: > 10 µM
CD19 CAR T cells; read-out: Suppression of cytokine production, GMCSF (IC50), K562-CD19 stimulation, 72 h
  IC50: > 10 µM
CD19 CAR T cells; read-out: Suppression of cytokine production, GMCSF (IC50), KIP-1 stimulation, 72 h
  IC50: > 10 µM
CD19 CAR T cells; read-out: Suppression of cytokine production, GzB (IC50), CD3/CD28 stimulation, 72 h
  IC50: > 10 µM
CD19 CAR T cells; read-out: Suppression of cytokine production, GzB (IC50), K562-CD19 stimulation, 72 h
  IC50: > 10 µM
CD19 CAR T cells; read-out: Suppression of cytokine production, GzB (IC50), KIP-1 stimulation, 72 h
  IC50: > 10 µM
CD19 CAR T cells; read-out: Suppression of cytokine production, IFNg (IC50), CD3/CD28 stimulation, 72 h
  IC50: > 10 µM
CD19 CAR T cells; read-out: Suppression of cytokine production, IFNg (IC50), K562-CD19 stimulation, 72 h
  IC50: > 10 µM
CD19 CAR T cells; read-out: Suppression of cytokine production, IFNg (IC50), KIP-1 stimulation, 72 h
  IC50: > 10 µM
CD19 CAR T cells; read-out: Suppression of cytokine production, IL-2Ra (IC50), CD3/CD28 stimulation, 72 h
  IC50: 4.74 µM
CD19 CAR T cells; read-out: Suppression of cytokine production, IL-2Ra (IC50), K562-CD19 stimulation, 72 h
  IC50: > 10 µM
CD19 CAR T cells; read-out: Suppression of cytokine production, IL-2Ra (IC50), KIP-1 stimulation, 72 h
  IC50: > 10 µM
CD19 CAR T cells; read-out: Suppression of cytokine production, IL-8 (IC50), CD3/CD28 stimulation, 72 h
  IC50: > 10 µM
CD19 CAR T cells; read-out: Suppression of cytokine production, IL-8 (IC50), K562-CD19 stimulation, 72 h
  IC50: > 10 µM
CD19 CAR T cells; read-out: Suppression of cytokine production, IL-8 (IC50), KIP-1 stimulation, 72 h
  IC50: > 10 µM
CD19 CAR T cells; read-out: Suppression of cytokine production, IL-10 (IC50), K562-CD19 stimulation, 72 h
  IC50: 4.01 µM
CD19 CAR T cells; read-out: Suppression of cytokine production, IL-10 (IC50), KIP-1 stimulation, 72 h
  IC50: 3.93 µM
CD19 CAR T cells; read-out: Suppression of cytokine production, MIG (IC50), CD3/CD28 stimulation, 72 h
  IC50: > 10 µM
CD19 CAR T cells; read-out: Suppression of cytokine production, MIG (IC50), KIP-1 stimulation, 72 h
  IC50: > 10 µM
CD19 CAR T cells; read-out: Suppression of cytokine production, MIP-1a (IC50), CD3/CD28 stimulation, 72 h
  IC50: > 10 µM
CD19 CAR T cells; read-out: Suppression of cytokine production, MIP-1a (IC50), K562-CD19 stimulation, 72 h
  IC50: > 10 µM
CD19 CAR T cells; read-out: Suppression of cytokine production, MIP-1a (IC50), KIP-1 stimulation, 72 h
  IC50: > 10 µM
CD19 CAR T cells; read-out: Suppression of cytokine production, MIP-1b (IC50), CD3/CD28 stimulation, 72 h
  IC50: > 10 µM
CD19 CAR T cells; read-out: Suppression of cytokine production, MIP-1b (IC50), K562-CD19 stimulation, 72 h
  IC50: > 10 µM
CD19 CAR T cells; read-out: Suppression of cytokine production, MIP-1b (IC50), KIP-1 stimulation, 72 h
  IC50: > 10 µM
CD19 CAR T cells; read-out: Suppression of cytokine production, Perforin (IC50), CD3/CD28 stimulation, 72 h
  IC50: > 10 µM
CD19 CAR T cells; read-out: Suppression of cytokine production, Perforin (IC50), K562-CD19 stimulation, 72 h
  IC50: > 10 µM
CD19 CAR T cells; read-out: Suppression of cytokine production, Perforin (IC50), KIP-1 stimulation, 72 h
  IC50: > 10 µM
